Data on one molecule can be found in patent EP3436024B1, “3-BETA-METHOXY-PREG FOR USE IN THE TREATMENT OF TREATMENT RESISTANT DEPRESSION” (Mapreg, priority 2016, dated 2017).

One assay concerns the target Dopaminergic D3 (Homo sapiens, UniProt P35462). The experiment in a line: CNS receptor binding assay, D3. The conditions noted are these: MAP4343 10 µM; [^3H] spiperone; Human recombinant (CHO cells); read-out: % Inhibition of control specific binding. The protocol:
(§1) MAP4343 has been screened for in vitro affinity to 80 different CNS neurotransmitters receptors using various validated binding assays.
(§2) Table 4. In vitro affinity of MAP4343 (10 µM) for CNS neurotransmitter receptors associated with side effects and/or abuse liability. Data are the average of two individual assays for each receptor and are expressed as % inhibition of the control specific binding of the reference compound. Results showing an inhibition higher than 50% are considered to represent significant effects of the test compound.

The target of the next assay is Serotoninergic 5-HT3 (Homo sapiens, UniProt P46098). Briefly: CNS receptor binding assay, 5-HT3. The conditions noted are these: MAP4343 10 µM; [^3H] BRL 43694; Human recombinant (CHO cells); read-out: % Inhibition of control specific binding. On the procedure: as §1, §2
In the next assay the target is Noradrenergic β1 (Homo sapiens, UniProt P08588). Briefly: CNS receptor binding assay, β1. The conditions noted are these: MAP4343 10 µM; [^3H] (-) CGP 12177; Human recombinant (HEK-293 cells); read-out: % Inhibition of control specific binding. On the procedure: as §1, §2
The subject of the next assay is Noradrenergic α2. The experiment in a line: CNS receptor binding assay, α2. The conditions noted are these: MAP4343 10 µM; [^3H] RX 821002; rat cerebral cortex. On the procedure:
as §1, §2

Assay [1] relates to 80 different CNS neurotransmitters receptors. Briefly: Screen for in vitro affinity to 80 CNS neurotransmitter receptors. It counts as binding. The conditions noted are these: MAP4343 10 µM; inhibition higher than 50% considered significant. The protocol: as §1, §2
Assay [2] concerns the target T1, Muscarinic (Cholinergic) M1 (Homo sapiens, UniProt P11229).
T1 construct: expressed in transfected cells; host or cells: CHO cells
Briefly: CNS receptor binding assay, M1. The conditions noted are these: MAP4343 10 µM; [^3H] pirenzepine; Human recombinant (CHO cells); read-out: % Inhibition of control specific binding. On the procedure:
as §1, §2

A further assay concerns the target Dopaminergic D5 (Homo sapiens, UniProt P21918). The experiment in a line: CNS receptor binding assay, D5. The conditions noted are these: MAP4343 10 µM; [^3H] SCH 23390; Human recombinant (GH4 cells); read-out: % Inhibition of control specific binding. The protocol:
as §1, §2

The next assay deals with Cannabinoid CB1 (Homo sapiens, UniProt P21554). Briefly: CNS receptor binding assay, CB1. The conditions noted are these: MAP4343 10 µM; [^3H] CP 55940; Human recombinant (CHO cells); read-out: % Inhibition of control specific binding. The protocol:
as §1, §2

The target in assay [3] is Serotoninergic Transporter (Homo sapiens, UniProt P31645). The experiment in a line: CNS receptor binding assay, serotoninergic transporter. The conditions noted are these: MAP4343 10 µM; [^3H] imipramine; Human recombinant (CHO cells); read-out: % Inhibition of control specific binding. On the procedure: as §1, §2
Another assay deals with Serotoninergic 5-HT2B (Homo sapiens, UniProt P41595). The experiment in a line: CNS receptor binding assay, 5-HT2B. The conditions noted are these: MAP4343 10 µM; [^125I] (±) DOI; Human recombinant (CHO cells); read-out: % Inhibition of control specific binding. On the procedure:
as §1, §2

In assay [4] the target is T2, Muscarinic (Cholinergic) M3 (Homo sapiens, UniProt P20309).
T2 construct: expressed in transfected cells; host or cells: CHO cells
Briefly: CNS receptor binding assay, M3. The conditions noted are these: MAP4343 10 µM; [^3H] 4-DAMP; Human recombinant (CHO cells); read-out: % Inhibition of control specific binding. On the procedure:
as §1, §2

The target in assay [5] is T3, human progesterone receptor(PR) (Homo sapiens, UniProt P06401).
T3 construct: expressed in transfected cells; host or cells: HEK293T
T3 sequence (P06401 1-933): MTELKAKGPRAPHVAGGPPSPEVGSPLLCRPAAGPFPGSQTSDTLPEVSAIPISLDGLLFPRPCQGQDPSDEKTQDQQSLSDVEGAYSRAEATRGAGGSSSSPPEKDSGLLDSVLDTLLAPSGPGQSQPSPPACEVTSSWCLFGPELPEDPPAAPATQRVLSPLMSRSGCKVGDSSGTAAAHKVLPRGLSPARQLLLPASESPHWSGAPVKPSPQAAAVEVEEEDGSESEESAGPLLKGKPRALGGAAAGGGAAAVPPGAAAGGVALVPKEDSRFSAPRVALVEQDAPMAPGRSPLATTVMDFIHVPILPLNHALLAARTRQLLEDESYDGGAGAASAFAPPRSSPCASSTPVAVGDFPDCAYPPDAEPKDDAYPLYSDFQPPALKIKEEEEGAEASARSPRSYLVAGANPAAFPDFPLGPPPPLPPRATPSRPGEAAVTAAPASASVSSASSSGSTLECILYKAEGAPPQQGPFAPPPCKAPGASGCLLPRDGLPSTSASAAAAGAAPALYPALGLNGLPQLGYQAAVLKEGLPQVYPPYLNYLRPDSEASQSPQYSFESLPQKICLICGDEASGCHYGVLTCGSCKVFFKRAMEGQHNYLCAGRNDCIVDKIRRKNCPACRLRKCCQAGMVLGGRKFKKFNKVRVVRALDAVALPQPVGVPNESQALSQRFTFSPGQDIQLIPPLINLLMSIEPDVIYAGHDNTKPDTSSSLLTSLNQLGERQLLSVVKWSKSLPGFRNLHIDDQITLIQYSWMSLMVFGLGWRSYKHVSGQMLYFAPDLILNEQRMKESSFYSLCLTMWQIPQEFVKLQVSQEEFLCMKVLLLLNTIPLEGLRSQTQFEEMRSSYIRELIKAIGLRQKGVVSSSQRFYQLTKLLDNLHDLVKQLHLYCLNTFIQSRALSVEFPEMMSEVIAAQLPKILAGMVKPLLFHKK
Briefly: Test of progesterone receptor agonist activity (MMTV-luciferase transactivation in transfected HEK293T cells). The class given is cell-based. The conditions noted are these: 24 hours, increasing amounts, Figure 1. On the procedure:
The main experimental setting used is the following: HEK293T cells were transiently transfected, using calcium phosphate precipitation technology, with expression vectors pSG5hPR (which permits expression of human progesterone receptor(PR)), pFC31-luc (contains the luciferase gene under the control of the MMTV promoter, which is in turn activated by binding of a progestin to progesterone receptor) and pcbetagal (which permits expression of betagalactosidase), and cultured during 24 hours with increasing amounts of various compositions: • 1. […] Test of progesterone receptor […] activity: transfected cells were cultured with progesterone (1 nM) and increasing amounts of RU486 (a well-known progesterone receptor antagonist) or 3-methoxy-pregnenolone. With this setting, a compound with progesterone receptor antagonist activity competes with progesterone for the occupation of progesterone receptor and results in a progressive loss of transactivation activity when the amount of this compound is increased compared to progesterone.

A further assay deals with T4, Androgen Receptor (AR) (Rattus norvegicus, UniProt P15207).
T4 construct: host or cells: E. coli
Briefly: Radioligand binding assay, steroid hormone receptor AR. The conditions noted are these: MAP4343 10 µM; 1.5 nM [^3H] Mibolerone; Rat recombinant E. coli. The protocol: Binding affinity of 3β-methoxy-PREG (MAP4343) for receptors of steroid hormones was evaluated using radioligand binding assays.
Table 3. Affinity of MAP4343 (10 µM) for steroid hormones receptors measured by radioligand binding assays. […] None of the results met significance criteria at concentrations used.

T4 sequence (P15207 615-902 limits assumed): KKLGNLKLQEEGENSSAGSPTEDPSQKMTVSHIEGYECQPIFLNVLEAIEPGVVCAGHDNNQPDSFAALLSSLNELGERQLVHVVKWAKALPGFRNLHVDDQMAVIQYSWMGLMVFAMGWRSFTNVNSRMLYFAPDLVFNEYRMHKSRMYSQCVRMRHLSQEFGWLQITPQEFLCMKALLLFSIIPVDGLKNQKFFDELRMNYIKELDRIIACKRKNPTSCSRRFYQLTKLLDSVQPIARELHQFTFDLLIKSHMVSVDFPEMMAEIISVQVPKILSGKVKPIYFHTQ
Chain of Dopaminergic D3 (P35462 whole entry): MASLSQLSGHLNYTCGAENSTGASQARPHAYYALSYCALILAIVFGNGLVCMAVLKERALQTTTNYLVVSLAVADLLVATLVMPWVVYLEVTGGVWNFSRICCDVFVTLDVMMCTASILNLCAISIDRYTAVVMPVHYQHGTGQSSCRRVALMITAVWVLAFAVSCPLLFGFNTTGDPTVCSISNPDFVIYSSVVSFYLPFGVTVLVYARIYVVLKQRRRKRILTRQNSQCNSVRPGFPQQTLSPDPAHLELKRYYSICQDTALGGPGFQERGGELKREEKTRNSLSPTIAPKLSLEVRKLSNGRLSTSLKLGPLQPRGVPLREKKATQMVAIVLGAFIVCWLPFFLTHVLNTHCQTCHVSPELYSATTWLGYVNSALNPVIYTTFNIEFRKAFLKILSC
Chain of Dopaminergic D5 (P21918 whole entry): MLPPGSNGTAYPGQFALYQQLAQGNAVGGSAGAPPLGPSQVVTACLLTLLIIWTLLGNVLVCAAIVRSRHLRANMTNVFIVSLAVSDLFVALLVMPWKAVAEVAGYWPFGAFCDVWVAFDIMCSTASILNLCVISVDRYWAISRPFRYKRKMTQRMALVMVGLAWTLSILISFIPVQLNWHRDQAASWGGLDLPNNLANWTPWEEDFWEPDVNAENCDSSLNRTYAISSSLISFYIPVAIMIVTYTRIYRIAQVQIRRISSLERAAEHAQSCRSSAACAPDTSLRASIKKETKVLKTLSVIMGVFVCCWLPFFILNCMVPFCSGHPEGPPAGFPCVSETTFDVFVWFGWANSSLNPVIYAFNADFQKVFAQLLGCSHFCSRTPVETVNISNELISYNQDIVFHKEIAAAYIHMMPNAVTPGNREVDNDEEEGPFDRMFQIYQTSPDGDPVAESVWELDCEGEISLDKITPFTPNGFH
Chain of Noradrenergic β1 (P08588 whole entry): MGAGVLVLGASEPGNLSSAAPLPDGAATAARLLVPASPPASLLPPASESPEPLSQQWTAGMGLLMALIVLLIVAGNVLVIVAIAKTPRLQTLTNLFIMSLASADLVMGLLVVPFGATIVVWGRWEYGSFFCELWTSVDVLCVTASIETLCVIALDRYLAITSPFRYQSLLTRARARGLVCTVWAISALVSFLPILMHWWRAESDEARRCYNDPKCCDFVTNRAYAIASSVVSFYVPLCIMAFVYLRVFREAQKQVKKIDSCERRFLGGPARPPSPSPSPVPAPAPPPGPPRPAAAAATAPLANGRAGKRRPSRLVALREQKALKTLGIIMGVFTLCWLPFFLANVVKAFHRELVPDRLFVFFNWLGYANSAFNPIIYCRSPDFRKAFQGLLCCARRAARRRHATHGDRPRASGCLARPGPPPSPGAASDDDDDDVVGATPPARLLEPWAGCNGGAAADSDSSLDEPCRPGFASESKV
Chain of Serotoninergic Transporter (P31645 whole entry): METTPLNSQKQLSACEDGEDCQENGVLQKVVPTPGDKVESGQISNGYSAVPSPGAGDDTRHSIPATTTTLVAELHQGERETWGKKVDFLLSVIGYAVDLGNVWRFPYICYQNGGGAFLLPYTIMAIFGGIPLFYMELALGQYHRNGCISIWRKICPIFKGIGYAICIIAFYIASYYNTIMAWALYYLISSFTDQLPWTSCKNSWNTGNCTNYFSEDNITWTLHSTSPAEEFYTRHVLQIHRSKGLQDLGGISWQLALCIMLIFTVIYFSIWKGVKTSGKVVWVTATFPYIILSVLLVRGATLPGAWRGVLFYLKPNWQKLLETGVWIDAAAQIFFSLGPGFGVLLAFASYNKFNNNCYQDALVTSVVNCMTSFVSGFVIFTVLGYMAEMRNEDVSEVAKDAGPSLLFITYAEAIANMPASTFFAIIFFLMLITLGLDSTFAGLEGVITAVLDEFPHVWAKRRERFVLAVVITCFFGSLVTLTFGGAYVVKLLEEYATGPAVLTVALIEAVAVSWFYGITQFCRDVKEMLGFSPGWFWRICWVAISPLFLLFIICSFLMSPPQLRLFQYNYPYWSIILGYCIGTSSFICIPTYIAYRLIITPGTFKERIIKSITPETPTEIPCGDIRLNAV
Chain of Cannabinoid CB1 (P21554 whole entry): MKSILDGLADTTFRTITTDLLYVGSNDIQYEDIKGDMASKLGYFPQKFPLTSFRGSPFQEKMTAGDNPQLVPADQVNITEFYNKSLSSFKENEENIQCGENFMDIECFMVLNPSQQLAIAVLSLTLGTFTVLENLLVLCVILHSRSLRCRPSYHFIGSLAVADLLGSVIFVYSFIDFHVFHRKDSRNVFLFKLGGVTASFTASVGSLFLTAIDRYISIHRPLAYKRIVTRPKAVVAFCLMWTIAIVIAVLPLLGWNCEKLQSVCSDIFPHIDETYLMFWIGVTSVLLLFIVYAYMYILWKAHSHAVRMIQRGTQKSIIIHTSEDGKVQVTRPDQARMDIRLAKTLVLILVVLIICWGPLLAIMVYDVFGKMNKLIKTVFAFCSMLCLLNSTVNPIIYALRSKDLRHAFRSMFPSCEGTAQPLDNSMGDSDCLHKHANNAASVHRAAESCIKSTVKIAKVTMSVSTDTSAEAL
T1 sequence (P11229 whole entry): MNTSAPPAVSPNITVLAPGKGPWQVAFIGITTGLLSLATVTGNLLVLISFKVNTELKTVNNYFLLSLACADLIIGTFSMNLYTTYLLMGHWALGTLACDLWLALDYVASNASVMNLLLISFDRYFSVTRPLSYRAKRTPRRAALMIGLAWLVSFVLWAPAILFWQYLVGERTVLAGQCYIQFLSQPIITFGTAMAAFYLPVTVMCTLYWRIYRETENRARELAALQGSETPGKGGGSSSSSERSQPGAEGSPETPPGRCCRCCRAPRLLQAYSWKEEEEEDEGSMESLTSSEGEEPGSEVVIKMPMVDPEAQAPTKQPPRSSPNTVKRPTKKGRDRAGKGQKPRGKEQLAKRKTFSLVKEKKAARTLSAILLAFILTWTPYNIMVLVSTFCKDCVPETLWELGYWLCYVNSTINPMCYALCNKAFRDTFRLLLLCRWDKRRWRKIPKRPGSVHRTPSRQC
T2 sequence (P20309 whole entry): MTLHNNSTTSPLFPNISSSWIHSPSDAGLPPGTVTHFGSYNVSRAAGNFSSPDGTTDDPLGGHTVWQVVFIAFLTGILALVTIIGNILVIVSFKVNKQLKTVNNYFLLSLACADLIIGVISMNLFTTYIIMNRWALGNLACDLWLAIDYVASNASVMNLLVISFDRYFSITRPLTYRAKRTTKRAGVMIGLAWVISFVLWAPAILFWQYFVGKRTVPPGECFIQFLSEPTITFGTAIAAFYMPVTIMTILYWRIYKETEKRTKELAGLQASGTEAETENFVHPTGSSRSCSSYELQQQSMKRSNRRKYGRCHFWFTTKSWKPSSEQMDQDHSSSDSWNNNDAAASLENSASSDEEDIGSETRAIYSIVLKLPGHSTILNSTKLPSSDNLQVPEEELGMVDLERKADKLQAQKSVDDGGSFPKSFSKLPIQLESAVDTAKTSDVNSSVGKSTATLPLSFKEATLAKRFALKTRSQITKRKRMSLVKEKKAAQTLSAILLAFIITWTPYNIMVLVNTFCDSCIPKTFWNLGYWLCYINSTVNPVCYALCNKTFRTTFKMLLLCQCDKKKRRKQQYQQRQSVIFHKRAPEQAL
Chain of Serotoninergic 5-HT3 (P46098 24-478): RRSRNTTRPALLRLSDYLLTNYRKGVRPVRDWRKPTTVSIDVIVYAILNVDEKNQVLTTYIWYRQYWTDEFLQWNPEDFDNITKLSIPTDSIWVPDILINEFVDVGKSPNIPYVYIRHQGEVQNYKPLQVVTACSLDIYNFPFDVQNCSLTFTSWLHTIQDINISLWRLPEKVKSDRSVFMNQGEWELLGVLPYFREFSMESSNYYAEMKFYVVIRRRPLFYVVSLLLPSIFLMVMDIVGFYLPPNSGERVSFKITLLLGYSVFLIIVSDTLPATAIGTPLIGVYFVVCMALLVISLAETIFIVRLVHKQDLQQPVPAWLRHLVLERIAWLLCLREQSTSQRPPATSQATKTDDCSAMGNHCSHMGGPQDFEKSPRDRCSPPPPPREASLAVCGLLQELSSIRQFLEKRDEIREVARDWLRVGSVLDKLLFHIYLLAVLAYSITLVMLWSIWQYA
Chain of Serotoninergic 5-HT2B (P41595 whole entry): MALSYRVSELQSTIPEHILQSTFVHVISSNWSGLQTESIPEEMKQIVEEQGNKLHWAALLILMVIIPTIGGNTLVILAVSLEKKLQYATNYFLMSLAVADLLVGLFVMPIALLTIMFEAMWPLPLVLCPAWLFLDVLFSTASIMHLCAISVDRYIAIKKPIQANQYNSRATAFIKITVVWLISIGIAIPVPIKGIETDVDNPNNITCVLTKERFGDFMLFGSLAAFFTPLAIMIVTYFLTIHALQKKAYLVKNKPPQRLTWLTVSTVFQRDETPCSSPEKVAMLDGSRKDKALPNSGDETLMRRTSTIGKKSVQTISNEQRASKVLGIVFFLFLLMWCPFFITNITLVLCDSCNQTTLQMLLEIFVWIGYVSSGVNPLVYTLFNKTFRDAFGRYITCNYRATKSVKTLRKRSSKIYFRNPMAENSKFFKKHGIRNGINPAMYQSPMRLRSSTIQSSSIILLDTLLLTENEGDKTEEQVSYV

With `CO[C@H]1CC[C@@]2(C)C(=CC[C@H]3[C@@H]4CC[C@H](C(C)=O)[C@@]4(C)CC[C@@H]32)C1` (stereo in doubt) [MAP4343, 3β-methoxy-pregna-5-ene-20-one], the inhibition (in general, the relative decrease from the control value, in per cent) at 10 µM on Dopaminergic D3 is 8%; on Serotoninergic 5-HT3 it was 10%; on Noradrenergic β1 it was 1%; in [2], -3%; on Dopaminergic D5 it was -7%; at Cannabinoid CB1, 12%. For the same molecule, the inhibition at 10 µM in assay [3] is 3%; on Serotoninergic 5-HT2B, -4%; in assay [4], 3%; on Androgen Receptor (AR), below 25%. The “% Inhibition of control specific binding” value in the assay on Noradrenergic α2 is reported as 7%. In addition, in assay [1], the “in vitro affinity for tested receptors” value is on record as “no significant affinity for any tested receptor”. Further, the “progesterone receptor agonist activity (transactivation activity leading to the expression of luciferase)” value in assay [5] was “does not permit such a transactivation activity”. Moreover, at Androgen Receptor (AR), the % inhibition (as a rule, the change of the read-out against control, counted positive when it falls) was 18%.
